Results as given in ChEMBL document CHEMBL5726588, “Chemically modified quinoline and quinolone derivatives useful as CB-1 inverse agonists” (2017).

Legend:
Cannabinoid receptor 2 = Cannabinoid receptor 2 (Homo sapiens, UniProt P34972); test: (§1) cAMP Assay : Cells plated the day prior to the assay in clear bottom plates were viewed on an inverse microscope to ensure confluency in the range of 60-75%. The following mixtures and buffer solutions were prepared: (a) Buffer 1: HBSS (Mediatech Cat#21-023-CV) with 5 mM HEPES ([…], Gibco BRL Cat#15630-056) and 0.1% BSA (7.5% stock, Invitrogen Cat#15260-037); (b) Buffer 2: 0.5 mM IBMX (200 mM stock in DMSO, Sigma 15879) in Buffer 1; (c) 1 μM cAMP Standard (50 μM stock, Perkin Elmer Cat# AD0262) diluted in Buffer 2 and serially diluted in Buffer 2, 12 doses @ ½ dilutions resulting in a dose range of 1 μM to 0.5 nM; (d) d2 labelled cAMP (CisBio HTRF Detection Kit Cat #62AM4PEB reconstituted with 6 mL d-H2O) diluted 1/20 with lysis buffer (CisBio HTRF Detection Kit Cat #62AM4PEB); (e) anti-cAMP (CisBio HTRF Detection Kit Cat # 62AM4PEB reconstituted with 5 mL d-H2O) diluted 1/20 with lysis buffer (CisBio HTRF Detection Kit Cat #62AM4PEB); and (f) Forskolin (Sigma Cat# F6886, 10 mM in DMSO) diluted first in DMSO to 1 mM and then to 1.5 μM in Buffer 2.
Cannabinoid receptor 1 = Cannabinoid receptor 1 (Homo sapiens, UniProt P21554); test: as §1
Sequence of Cannabinoid receptor 1 (P21554 whole entry): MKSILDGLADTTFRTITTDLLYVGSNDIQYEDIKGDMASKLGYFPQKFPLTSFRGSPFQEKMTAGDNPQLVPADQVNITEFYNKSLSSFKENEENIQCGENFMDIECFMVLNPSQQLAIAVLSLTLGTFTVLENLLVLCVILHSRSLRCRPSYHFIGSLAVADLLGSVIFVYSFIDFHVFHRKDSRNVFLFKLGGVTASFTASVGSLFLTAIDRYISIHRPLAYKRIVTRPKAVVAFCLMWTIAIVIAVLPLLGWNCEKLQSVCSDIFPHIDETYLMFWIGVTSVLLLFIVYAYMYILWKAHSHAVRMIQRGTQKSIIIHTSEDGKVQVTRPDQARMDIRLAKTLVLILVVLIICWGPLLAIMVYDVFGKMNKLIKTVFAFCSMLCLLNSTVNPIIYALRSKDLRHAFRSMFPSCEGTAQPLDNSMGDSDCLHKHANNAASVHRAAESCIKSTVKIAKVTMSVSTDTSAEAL

Sequence of Cannabinoid receptor 2 (P34972 whole entry): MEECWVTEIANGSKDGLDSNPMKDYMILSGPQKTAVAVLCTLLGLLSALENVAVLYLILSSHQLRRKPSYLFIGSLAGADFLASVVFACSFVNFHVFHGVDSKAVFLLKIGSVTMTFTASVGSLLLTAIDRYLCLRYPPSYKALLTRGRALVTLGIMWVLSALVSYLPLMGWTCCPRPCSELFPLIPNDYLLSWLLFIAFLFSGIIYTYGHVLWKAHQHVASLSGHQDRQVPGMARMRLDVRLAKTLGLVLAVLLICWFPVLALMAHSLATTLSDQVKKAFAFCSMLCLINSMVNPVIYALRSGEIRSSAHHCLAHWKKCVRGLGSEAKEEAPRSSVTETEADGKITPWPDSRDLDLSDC

Row | SMILES | EC50 (Cannabinoid receptor 2) | EC50 (Cannabinoid receptor 1)
1 | COCCOCCOCCOCCOCCOCCOCCOc1cc(NC2CCN(S(=O)(=O)C(F)(F)F)CC2)c2cc(C(c3ccc(Cl)cc3)c3ccc(Cl)cc3)ccc2n1 | 5.57 µM | 0.48 µM
2 | COCCOCCOCCOCCOc1cc(NC2CCN(S(=O)(=O)C(F)(F)F)CC2)c2cc(C(c3ccc(Cl)cc3)c3ccc(Cl)cc3)ccc2n1 | 7.4 µM | 0.056 µM
3 | NNC(=O)CCOCCOCCOCCOCCOCCOCCOCCOCCOCCNC(=O)CCCCCOc1cc(NC2CCN(S(=O)(=O)C(F)(F)F)CC2)c2cc(C(c3ccc(Cl)cc3)c3ccc(Cl)cc3)ccc2n1 | 1.26 µM | 0.033 µM
4 | NCCOCCOCCOCCOCCOCCOCCOCCOCCOCCOCCOCCOc1cc(NC2CCN(S(=O)(=O)C(F)(F)F)CC2)c2cc(C(c3ccc(Cl)cc3)c3ccc(Cl)cc3)ccc2n1 | 4.3 µM | 0.036 µM
5 | O=S(=O)(N1CCC(Nc2ccnc3c(OCCOCCOCCOCCOCCOCCOCCOCCOCCOCCO)cc(C(c4ccc(Cl)cc4)c4ccc(Cl)cc4)cc23)CC1)C(F)(F)F | 1.9 µM | 0.068 µM
6 | CC(C)(C)OC(=O)NCCOCCOCCOCCOCCOCCOCCOCCOCCOCCOCCOCCOc1cc(NC2CCN(S(=O)(=O)C(F)(F)F)CC2)c2cc(C(c3ccc(Cl)cc3)c3ccc(Cl)cc3)ccc2n1 | > 10 µM | 1.8 µM
7 | COCCOCCOCCOCCn1c(=O)c(N2CCN(c3ccccc3)CC2)cc2cc(C(c3ccc(Cl)cc3)c3ccc(Cl)cc3)ccc21 | 5.51 µM | 0.35 µM
8 | COCCOCCOCCOCCOCCOCCOCCn1c(=O)cc(NC2CCN(S(=O)(=O)C(F)(F)F)CC2)c2cc(C(c3ccc(Cl)cc3)c3ccc(Cl)cc3)ccc21 | > 10 µM | 4.91 µM
9 | CC(C)(C)OC(=O)CCOCCOCCOCCOCCOCCOCCOCCOCCOCCOCCOCCOCCOc1cc(C(c2ccc(Cl)cc2)c2ccc(Cl)cc2)cc2c(NC3CCN(S(=O)(=O)C(F)(F)F)CC3)ccnc12 | 2.25 µM | 0.46 µM
